The source of these data is US20080171709A1, “Pharmaceutical Composition Comprising An Antiviral Agent, An Antitumoral Agent Or An Antiparasitic Agent, And An Active Agent Selected Among Carveol, Thymol, Eugenol, Borneol,And Carvacrol” (priority 2005, published 2008).

In series [1] the test system is HEP (human larynx carcinoma) cell line. The series can be described thus: MTT cytotoxicity on HEP cell line. The class given is cell-based. The procedure: (§1) […] tests were carried out on HEP (human larynx carcinoma), BSR (hamster kidney carcinoma) and P815 (murin mastocytoma) cell lines cultivated on DMEM medium (Dulbecco's modified eagles medium) supplemented with 5% of fetal bovine serum (Gibco BRL, France), 1% of penicillin- streptomycin-neomycin, 0.2% of sodium bicarbonate. These percentages are given as ratio of the weight to the global volume of the medium.
(§2) In these compositions, excipient is agar solution.
(§3) IC50 have been determined.

The test system of series [2] is BSR (hamster kidney carcinoma) cell line. The series can be described thus: MTT cytotoxicity on BSR cell line. The series is classed as cell-based. As to conditions: Mesocricetus auratus, read-out: IC50 (concentration inducing cytotoxicity for 50% of treated tumor cells). Here is the method: as §1, §2, §3
The test system of series [3] is P815 (murin mastocytoma) cell line. The series can be described thus: MTT cytotoxicity on P815 cell line. The class given is cell-based. As to conditions: Mus musculus, P815, read-out: IC50 (concentration inducing cytotoxicity for 50% of treated tumor cells). The procedure:
as §1, §2, §3

Series [4] has as its system HEP, BSR and P815 cell lines. The series can be described thus: cells. The procedure:
as §1, §2, §3

The mark [5] stands for this setting: read-out: IC50 (concentration inducing cytotoxicity for 50% of treated tumor cells).

In brackets after ≈: the same amount, converted by molar mass. Like-named read-outs stand apart in the source and are kept apart here.

On to `Cc1ccc(C(C)C)c(O)c1` [Thymol, thymol], for which the IC50 in series [1] (setting [5]), in series [2] and in series [3] was 300 µg/mL (≈ 2000 µM) throughout. The “cytotoxic effects towards cell lines at the concentration used in the tested compositions” value (shortened to “cytotoxic effects towards cell lines”) in series [4] was “without any cytotoxic effects”.

For the molecule `C=C(C)C1CC=C(C)C(O)C1` (mixture of isomers) [Carveol, carveol], the IC50 in series [1] (setting [5]), in series [2] and in series [3] was 400 µg/mL each time. The “cytotoxic effects towards cell lines” value in series [4] is “without any cytotoxic effects”.

With `Cc1ccc(C(C)C)cc1O` [Carvacrol, carvacrol], the IC50 in series [1] (read-out: IC50 (concentration inducing cytotoxicity for 50% of treated tumor cells), HEP, carvacrol, thymol or carveol alone) came to 300 µg/mL (≈ 2000 µM); in series [2] (BSR, carvacrol, thymol or carveol alone), 300 µg/mL (≈ 2000 µM); in series [3], 300 µg/mL (≈ 2000 µM). In series [4], the “cytotoxic effects towards cell lines” value is listed as “without any cytotoxic effects”.

With `COc1cccc2c1C(=O)c1c(O)c3c(c(O)c1C2=O)C[C@@](O)(C(=O)CO)C[C@@H]3O[C@H]1C[C@H](N)[C@H](O)[C@H](C)O1` [Doxorubicin, doxorubicin, reference compound], the IC50 was 20 µg/mL (≈ 36.8 µM) in series [1] (setting [5]); 25 µg/mL (≈ 46 µM) in series [2]; 15 µg/mL (≈ 27.6 µM) in series [3]; 15 to 25 µg/mL (≈ 27.6 to 46 µM) in series [4] (Mus musculus, P815, read-out: IC50 of doxorubicin used alone).
